According to patent US11806351B2, “Use of coenzyme factor for activation of ATP production in cell” (TERA STONE Co., Ltd, priority 2018, dated 2023):
Where two headings read alike, the source gives them in different places.

Tests used:
[1] = system: human glioma U251 cells (Sig1-R transfected cells); experiment: intracellular ATP concentration in human glioma U251 cells; type: cell-based
Description: To cultured human glioma US251 cells (Sig1-R transfected cells) were added Specimens 1 and 2, respectively and intercomparison was performed between intracellular ATP concentration after addition and that without addition (Cont.). […] It is to be noted that fluorescence measurement was performed 6 hours after the administration of the specimens.

[2] = lipophilicity, hydrophobicity and stability; type: physicochemical
[3] = system: mitochondrial Ca^2+ concentration in cerebral cortex and hippocampal neurons; experiment: K+ depolarization-induced mitochondrial Ca2+ increase in brain slices after intraperitoneal administration; type: in vivo, C57BL/6N mice
Description: One of adult C57BL/6N mice (from 10 to 17 weeks old, weight: from 28 to 31 g) was intraperitoneally administered with physiological saline (Control) and the other one with Specimen 3 (10 μg/kg). After 22 hours, a thin brain slice preparation of each mouse including the cortex and the hippocampus was made. Depolarization of a cellular membrane was caused by the addition of 80 mM KCl (80K) to an extracellular fluid and an increase in mitochondrial Ca^2+ concentration resulting therefrom was measured by a fluorescent method with Rhod-2 (Note 1). Positive participation of Specimen 3 to the ATP activity in mitochondria was indirectly verified (Note 3) by using, as an index, how the Ca^2+ concentration to be increased by 80K (Note 2) is suppressed by Specimen 3 in the brain slice.
(Note 1) Rhod-2: Ca^2+ fluorescent dye selectively incorporated in mitochondria
(Note 2) The depolarization of the neuronal membrane by 80K occurs due to both the flow of Ca^2+ from the outside to the inside of the cell and the release of Ca^2+ from an intracellular Ca store. The free Ca^2+ which has increased in the cell easily enters the mitochondria, an intracellular independent organ.
(Note 3) The free Ca^2+ which has increased in the neuronal cytoplasm due to 80K stimulation-induced depolarization speedily and immediately transmits into the mitochondria from the cytoplasm. A decrease in the mitochondrial free Ca^2+ concentration caused by the specimen occurs because the free Ca^2+ is scooped out of the cell by an outward Ca pump present in the neuron cytoplasm membrane or adsorption and fixing to a portion inside the mitochondria. Energy for it is supplied from ATP produced in the mitochondria. Based on the results thus obtained, intraperitoneally injected Specimen 3 passes from the blood to glia (astrocyte) cells and is then, incorporated in the mitochondria in the cerebral cortex or hippocampal neuron, by which ATP production in the mitochondria is activated and neurons are activated. […]
Fluorescence measurement results of a mitochondrial Ca^2+ increase are plotted along the ordinate.

[4] = system: hippocampal neurons; experiment: number of branches of hippocampal neuron dendrite, Specimens 5 to 11; type: cell-based, ICR mouse; details: 0.3 μM added once on culture day 1; MAP2 antibody culture day 4
Description: Hippocampal neurons were collected from the juvenile (Day 0 after birth) ICR mouse brain and cultured on a culture dish.
Each specimen was added once to the cells in the initial growth stage (on culture day 1); the resulting cells were immunostained with a MAP2 antibody three days later (on culture day 4), and the number of branches of the dendrite was quantified.
The measurement was performed by drawing 20 μm to 100 μm concentric circles (not shown) at an interval of 10 μm with a soma as a center and counting the number of dendrites crossing the circles.
A line graph of the number of dendrite crossings counted for each distance from the soma was drawn and a Student's t-test, paired (t-test, two tailed distribution) was carried out using an area under the line graph (Area under the Curve: AUC).
When the number of cases of a specimen was sufficient, the test was performed while eliminating the maximum and minimum values. The concentrations of the specimens to be added were each 0.3 μM.

[5] = cited from earlier work
[6] = system: mitochondrial calcium concentration; experiment: mitochondrial calcium concentration in brain slice preparations exposed to 80K ACSF, 24 h after subcutaneous administration; type: in vivo, mouse (C57B/6NL)
Description: (§1) Formation of brain slice preparation and measurement of calcium concentration: Used was a whole brain half-cut preparation obtained by cutting a whole brain slice (300 μm) of a mouse (C57B/6NL), pretreated with Specimen 1 for 24 hours by subcutaneous administration, at a median line. […] The resulting preparation was placed in a chamber provided on a stage of an inverted fluorescence microscope (Olympus IX71), covered with a piece of black cotton, fixed with a platinum ring, and refluxed (70 ml/hr) in ACSF aerated with 95% O2 and 5% CO2. A fluorescent image of the preparation was acquired using a 4× objective lens and respective images of the hippocampal ventral part and cerebral cortex temporal region were obtained in one screen. For the measurement of a mitochondrial calcium concentration, a change in intensity of red fluorescence (>600 nm) caused by excitation light at 580 nm was determined and for the measurement of a cytoplasmic calcium concentration, a ratio of fluorescence (>500 nm) between excitation at 360 nm and that at 380 nm was determined. A hippocampal CA1 site and a cerebral cortex were used as two regions of interest (ROI).
(§2) In water was dissolved β-NMN to give a 10 mg/kg, 30 mg/kg, or 100 mg/kg solution; Specimen 1 was dissolved in an alcohol to give a solution of 1 mg/ml and then the resulting solution was diluted with water to give a 0.01 mg/kg, 0.1 mg/kg or 1.0 mg/kg solution; and they were subcutaneously administered to mice 24 hours before the formation of the preparation (0.1 ml/10 g).
(§3) In the present test, an operation of exposing the brain preparations formed from mice administered with two drugs having respective concentrations to isotonic 80 mM KCl-ACSF (artificial cerebrospinal fluid) for 5 minutes and then returning them in normal ACSF for 5 minutes was performed three successive times to give a severe calcium load to the preparations. Variations in cytoplasmic and mitochondrial calcium concentrations at that time were measured.
FIG. 31A to FIG. 32C show the quantification results of the effects of β-NMN and Specimen 1 (TND1128) at each concentration. In FIG. 31A to FIG. 32C, FIG. 31A and FIG. 32A show the results of calculating a mitochondrial calcium concentration, as AUC (Area under the curve), for 35 minutes from 5 minutes after starting of the experiment by administration to three times exposure to 80K-ACSF and 5-minute washing (refer to FIG. 37). FIG. 31B. FIG. 31C, FIG. 32B and FIG. 32C show the drug effects on 5-minute 80K administration and 5-minute subsequent washing (1st: from 5 minutes to 15 minutes, 2nd: from 15 minutes to 25 minutes, and 3rd: from 25 minutes to 35 minutes) in the cerebral cortex (CTX) and the hippocampus (CA1), respectively (refer to FIG. 37). A significant difference test was performed using Tukey's method.

[7] = system: cytoplasmic calcium concentration; experiment: cytoplasmic calcium concentration in brain slice preparations exposed to 80K ACSF, 24 h after subcutaneous administration; type: in vivo, mouse (C57B/6NL)
Description: as §1, §2, §3

[8] = as printed in the method, b201, read-out: Kd

SMILES: CCCCn1c2nc(=O)n(-c3ccccc3)c(=O)c-2cc2c1C=C1CC[C@H]3[C@@H]4CC[C@H](O)[C@@]4(C)CC[C@@H]3[C@@]1(C)C2
- melting point: 200 °C

SMILES: C[C@]12CC[C@H]3[C@@H](CCC4=Cc5c(cc6c(=O)n(-c7ccccc7)c(=O)nc-6n5Cc5ccccc5)C[C@@]43C)[C@@H]1CC[C@@H]2O
- melting point: 224 °C

SMILES: C[C@]12CC[C@H]3[C@@H](CCC4=Cc5c(cc6c(=O)n(-c7ccccc7)c(=O)nc-6n5-c5ccccc5)C[C@@]43C)[C@@H]1CC[C@@H]2O
- melting point: 257 °C

SMILES: CCn1c2nc(=O)n(C)c(=O)c-2cc2c1C=C1CC[C@H]3[C@@H]4CC[C@H](O)[C@@]4(C)CC[C@@H]3[C@@]1(C)C2
- melting point: 260 °C (dec.)

SMILES: Cn1c(=O)nc2n(Cc3ccccc3)c3c(cc-2c1=O)C[C@@]1(C)C(=C3)CC[C@H]2[C@@H]3CC[C@H](O)[C@@]3(C)CC[C@@H]21
- melting point: 215 °C

SMILES: Cn1c(=O)nc2n(-c3ccccc3)c3c(cc-2c1=O)C[C@@]1(C)C(=C3)CC[C@H]2[C@@H]3CC[C@H](O)[C@@]3(C)CC[C@@H]21
- melting point: 215 °C (dec.)

SMILES: CCCCn1c2nc(=O)n(C)c(=O)c-2cc2ccccc21 [Specimen 2]
- effectiveness on ATP production compared between specimens ([1]; 6 hours after administration): more effective than Specimen 1
- ATP production amount (intracellular ATP concentration vs without addition) ([1]; fluorescence measurement 6 hours after administration): significantly increased the ATP production amount
- lipophilicity compared with Specimen 1 [2]: higher lipophilicity

SMILES: CCCCn1c2nc(=O)n(C)c(=O)c-2cc2c1C=C1CCC3C(CCC4(C)C(O)CCC34)C1(C)C2 (stereo not drawn) [Specimen 3, 8′-n-Butyl-5′-deaza-17β-hydroxy-3′-methylandrost-2,4-dieno[2,3-g]pteridine-2′,4′(3′H,8′H)-dione]
- decrease of 80K depolarization-induced increase in mitochondrial Ca2+ concentration, cortex and hippocampal neurons ([3]; 10 μg/kg i.p. pretreatment in vivo): markedly and at the maximum
- variations of mitochondrial Ca2+ concentration on 80K extracellular fluid, cerebral cortex neurons ([3]; 10 μg/kg i.p., slice made 22 hours after injection): suppression of the Ca^2+ concentration increase and a faster recovery from the Ca^2+ concentration increased by 80K depolarization can be observed
- dose at which the maximum inhibitory effect on mitochondrial Ca2+ concentration increase is attained, hippocampal neurons ([3]; i.p., 10 μg/kg and 10 mg/kg compared, n=3 slices): 0.01 mg/kg

SMILES: CCn1c2nc(=O)n(C)c(=O)c-2cc2c(=O)n(C)c(=O)[nH]c21 [Specimen 5]
- number of branches of hippocampal neuron dendrite (AUC of dendrite crossings, t-test vs control) [4]: an effect on dendrite elongation is recognized

SMILES: O=c1nc2n(-c3ccc(Cl)cc3)c3[nH]c(=O)n(-c4ccccc4)c(=O)c3cc-2c(=O)n1-c1ccccc1 [Specimen 6]
- number of branches of hippocampal neuron dendrite (AUC of dendrite crossings, t-test vs control) [4]: an effect on dendrite elongation is recognized

SMILES: Cn1c2nc(=O)n(C)c(=O)c-2cc2c1C=C1CCC3C(CCC4(C)C(O)CCC34)C1(C)C2 (centres unmarked) [Specimen 7]
- number of branches of hippocampal neuron dendrite (AUC of dendrite crossings, t-test vs control) [4]: a statistically significant difference is recognized (p<0.05)

SMILES: CCn1c2nc(=O)n(-c3ccccc3)c(=O)c-2cc2c1C=C1CCC3C(CCC4(C)C(O)CCC34)C1(C)C2 (stereo not drawn) [Specimen 8, 5′-Deaza-8′-ethyl-17β-hydroxy-3′-phenylandrost-2,4-dieno[2,3-g]pteridine-2′,4′(3′H, 8′H)-dione]
- number of branches of hippocampal neuron dendrite (AUC of dendrite crossings, t-test vs control) [4]: an effect on dendrite elongation is recognized

SMILES: CC(C)CCCC(C)C1CCC2C3CCC4=Cc5c(cc6c(=O)n(C)c(=O)nc-6n5C)CC4(C)C3CCC12C (centres unmarked) [Specimen 9]
- number of branches of hippocampal neuron dendrite (AUC of dendrite crossings, t-test vs control) [4]: an effect on dendrite elongation is recognized

SMILES: Cc1ccc(-n2c3nc(=O)n(C)c(=O)c-3cc3c2C=C2CCC4C(CCC5(C)C(C(C)CCCC(C)C)CCC45)C2(C)C3)cc1C (centres unmarked) [Specimen 10]
- number of branches of hippocampal neuron dendrite (AUC of dendrite crossings, t-test vs control) [4]: an effect on dendrite elongation is recognized

SMILES: Cc1ccc(-n2c3nc(=O)n(-c4ccccc4)c(=O)c-3cc3c2C=C2CCC4C(CCC5(C)C(C(C)CCCC(C)C)CCC45)C2(C)C3)cc1C (centres unmarked) [Specimen 11]
- number of branches of hippocampal neuron dendrite (AUC of dendrite crossings, t-test vs control) [4]: a statistically significant difference is recognized (p<0.05)

SMILES: CC(=O)OCOC(=O)CN(CC(=O)OCOC(C)=O)c1ccc(C)cc1OCCOc1cc(C2=c3cc4c5c(c3Oc3c2cc2c6c3CCCN6CCC2)CCC[N+]=5CCC4)ccc1N(CC(=O)OCOC(C)=O)CC(=O)OCOC(C)=O [Xrhod-1/AM]
- Kd [5, 8]: 700 µM

SMILES: CC(=O)OCOC(=O)CN(CC(=O)OCOC(C)=O)c1cc(F)ccc1OCCOc1cc2cc(-c3ncc(C(=O)OCOC(C)=O)o3)oc2cc1N(CC(=O)OCOC(C)=O)CC(=O)OCOC(C)=O [fura-4F/AM]
- Kd [5, 8]: 770 µM
- Kd ([5]; read-out: Ca2+ chelating ability (Kd)): 0.77 µM

SMILES: NC(=O)c1ccc[n+]([C@@H]2O[C@H](COP(=O)([O-])O)[C@@H](O)[C@H]2O)c1 [β-NMN, Nicotinamide mononucleotide, reference compound]
- physiological response of the preparations under 80K-ACSF stimulation (mitochondrial and cytoplasmic Ca2+ variations) ([6]; 100 mg/kg β-NMN, 1 mg/kg Specimen 1): the preparations can maintain a markedly stable physiological response
- mitochondrial protective function / function stabilizing effect ([6]; 24 hours after administration): induces significant mitochondrial protective function
- mitochondrial calcium concentration as AUC, cerebral cortex (CTX) and hippocampus (CA1) ([6]; s.c. 24 h pretreatment, within the dose range studied, Tukey's method): a dose response relationship
- mitochondrial Ca2+ increase on three times 80K ACSF exposure (time course) ([6]; s.c. 24 h pretreatment, β-NMN 10, 30, 100 mg/kg, Specimen 1 0.01, 0.1, 1.0 mg/kg): dose-dependently suppress a mitochondrial Ca^2+ increase
- effect on drastic increase in cytoplasmic Ca2+ concentration caused by 80K-ACSF ([7]; s.c. 24 h pretreatment): no significant effect
- quantified cytoplasmic Ca2+ (AUC), significant difference ([7]; s.c. 24 h pretreatment, all doses): a significant difference was not observed at concentrations other than that of the group administered with 10 mg/kg of β-NMN
- recovery of cytoplasmic calcium concentration variations at each 80K-ACSF administration ([7]; β-NMN 30 or 100 mg/kg, Specimen 1 0.01 to 1.0 mg/kg, s.c. 24 h): show similar recovery
